The target in this assay is T1, F508delCFTR cell surface expression in CFBE41o-F508delCFTR-HRP cells (Homo sapiens, UniProt P13569, DEL508-508).
T1 construct: fused on or other part: Horseradish peroxidase (HRP) reporter inserted in the fourth exofacial (extracellular) loop of CFTR; expression is doxycycline-inducible
Description: Cell Surface Expression-Horse Radish Peroxidase (CSE-HRP) Assay. It counts as cell-based. Particulars: for EC50: CFBE41o-F508delCFTR-HRP cells, 18-24 hours at 33° C., 8-point curve, highest concentration 20 μM; for Maximum % activity (%): maximum at any tested concentration, normalized to on-plate positive control (3 μM). Summed up: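 Correctors incubated 18-24 h at 33 °C on doxycycline-induced (0.5 μg/mL, 72 h) CFBE41o-F508delCFTR-HRP cells, 3-fold series from 20 μM. After DPBS washes, luminol luminescence read; activity expressed relative to DMSO and a 3 μM positive control, EC50 fitted from triplicate plates.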

One may read the EC50 as the concentration at which the effect is half-maximal. Read a high EC50 as a need for much substance.

T1 sequence (P13569 with tags, fused parts or gaps DEL508-508 limits assumed): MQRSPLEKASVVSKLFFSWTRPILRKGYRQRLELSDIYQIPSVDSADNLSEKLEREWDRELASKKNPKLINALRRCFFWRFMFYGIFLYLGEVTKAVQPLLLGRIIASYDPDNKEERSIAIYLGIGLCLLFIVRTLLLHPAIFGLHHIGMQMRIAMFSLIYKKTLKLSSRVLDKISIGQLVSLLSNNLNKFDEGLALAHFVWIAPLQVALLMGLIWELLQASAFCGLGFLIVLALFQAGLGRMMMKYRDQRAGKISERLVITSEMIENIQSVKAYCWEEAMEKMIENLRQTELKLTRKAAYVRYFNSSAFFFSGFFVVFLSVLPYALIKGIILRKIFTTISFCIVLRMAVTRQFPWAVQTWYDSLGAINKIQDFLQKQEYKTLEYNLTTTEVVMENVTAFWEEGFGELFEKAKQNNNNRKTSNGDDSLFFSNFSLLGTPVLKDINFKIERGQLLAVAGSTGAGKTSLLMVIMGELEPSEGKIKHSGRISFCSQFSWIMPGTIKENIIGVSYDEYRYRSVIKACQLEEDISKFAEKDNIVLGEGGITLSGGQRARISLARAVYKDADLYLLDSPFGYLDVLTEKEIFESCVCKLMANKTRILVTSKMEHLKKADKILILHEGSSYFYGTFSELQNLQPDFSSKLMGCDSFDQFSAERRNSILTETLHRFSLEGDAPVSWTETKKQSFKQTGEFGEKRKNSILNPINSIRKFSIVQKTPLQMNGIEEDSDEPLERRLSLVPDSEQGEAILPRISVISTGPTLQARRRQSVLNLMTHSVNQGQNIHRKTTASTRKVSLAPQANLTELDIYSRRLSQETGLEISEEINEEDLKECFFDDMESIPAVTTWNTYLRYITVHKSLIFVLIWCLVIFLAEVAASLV
T1 sequence (P13569 919-1480 limits assumed, stated change not applied): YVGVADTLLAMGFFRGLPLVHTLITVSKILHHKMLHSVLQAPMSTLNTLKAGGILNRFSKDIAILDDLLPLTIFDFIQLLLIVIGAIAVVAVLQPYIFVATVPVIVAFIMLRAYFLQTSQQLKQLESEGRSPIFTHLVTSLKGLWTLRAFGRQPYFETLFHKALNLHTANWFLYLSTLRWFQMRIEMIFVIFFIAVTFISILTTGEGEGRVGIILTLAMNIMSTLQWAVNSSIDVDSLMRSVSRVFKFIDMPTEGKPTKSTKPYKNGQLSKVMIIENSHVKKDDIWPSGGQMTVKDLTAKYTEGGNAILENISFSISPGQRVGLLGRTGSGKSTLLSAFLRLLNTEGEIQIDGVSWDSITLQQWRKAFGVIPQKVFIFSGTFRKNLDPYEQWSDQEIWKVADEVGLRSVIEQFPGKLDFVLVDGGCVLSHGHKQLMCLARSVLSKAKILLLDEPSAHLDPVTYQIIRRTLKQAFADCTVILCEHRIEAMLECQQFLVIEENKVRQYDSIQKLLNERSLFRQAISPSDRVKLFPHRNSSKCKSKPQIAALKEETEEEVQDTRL

For `C[C@]1(C(=O)Nc2ccc(N3CCC(O)C3)nc2)COc2cc3c(cc21)OC(F)(F)O3` (stereo partly drawn) [Example 72, (7R)-2,2-difluoro-N-[6-(3-hydroxypyrrolidin-1-yl)pyridin-3-yl]-7-methyl-6,7-dihydro-2H-furo[2,3-f][1,3]benzodioxole-7-carboxamide], the EC50 stood at 9200 nM and the “Maximum % activity (%)” value was found to be 28%.
The corresponding values for `C[C@]1(C(=O)Nc2cccc(-c3cccc(C(=O)O)c3)n2)COc2cc3c(cc21)OC(F)(F)O3` [Example 73, 3-(6-{[(7R)-2,2-difluoro-7-methyl-6,7-dihydro-2H-furo[2,3-f][1,3]benzodioxole-7-carbonyl]amino}pyridin-2-yl)benzoic acid] are 2650 nM and 117%.
For the molecule `Cc1ccc(NC(=O)C2(C)COc3cc4c(cc32)OC(F)(F)O4)nc1-c1cccc(C(N)=O)c1` (stereo not drawn) [Example 74, N-[6-(3-carbamoylphenyl)-5-methylpyridin-2-yl]-2,2-difluoro-7-methyl-6,7-dihydro-2H-furo[2,3-f][1,3]benzodioxole-7-carboxamide], a half-maximal effect (EC50) was put at 700 nM and the “Maximum % activity (%)” value is 105%.
The corresponding values for `Cc1ccc(NC(=O)C2(C)COc3cc4c(cc32)OC(F)(F)O4)nc1-c1cccc(C(=O)N(C)C)c1` (stereo not drawn) [Example 75, N-{6-[3-(dimethylcarbamoyl)phenyl]-5-methylpyridin-2-yl}-2,2-difluoro-7-methyl-6,7-dihydro-2H-furo[2,3-f][1,3]benzodioxole-7-carboxamide] are 1730 nM and 94%.
`CNC(=O)c1cccc(-c2nc(NC(=O)C3(C)COc4cc5c(cc43)OC(F)(F)O5)ccc2C)c1` (stereo not drawn) [Example 76, 2,2-difluoro-7-methyl-N-{5-methyl-6-[3-(methylcarbamoyl)phenyl]pyridin-2-yl}-6,7-dihydro-2H-furo[2,3-f][1,3]benzodioxole-7-carboxamide]: a half-maximal effect (EC50) was put at 720 nM and the “Maximum % activity (%)” value is reported as 111%.
For `Cc1ccc(NC(=O)[C@@]2(C)COc3cc4c(cc32)OC(F)(F)O4)nc1Cl` [Example 77, (7R)—N-(6-chloro-5-methylpyridin-2-yl)-2,2-difluoro-7-methyl-6,7-dihydro-2H-furo[2,3-f][1,3]benzodioxole-7-carboxamide] the same measures were 6630 nM and 116%.
For `Cc1ccc(NC(=O)[C@@]2(C)COc3cc4c(cc32)OC(F)(F)O4)nc1-c1cccc(C#N)c1` [Example 78, (7R)—N-[6-(3-cyanophenyl)-5-methylpyridin-2-yl]-2,2-difluoro-7-methyl-6,7-dihydro-2H-furo[2,3-f][1,3]benzodioxole-7-carboxamide] the same measures were 570 nM and 95%.
On to `COC(=O)c1ccc(-c2cccc(NC(=O)[C@@]3(C)COc4cc5c(cc43)OC(F)(F)O5)n2)cc1` [Example 79, methyl 4-(6-{[(7R)-2,2-difluoro-7-methyl-6,7-dihydro-2H-furo[2,3-f][1,3]benzodioxole-7-carbonyl]amino}pyridin-2-yl)benzoate], for which it took 1180 nM to reach a half-maximal effect (EC50) and the “Maximum % activity (%)” value is on record as 151%.
For `C[C@]1(C(=O)Nc2ccc(N3CCCC3)cn2)COc2cc3c(cc21)OC(F)(F)O3` [Example 80, (7R)-2,2-difluoro-7-methyl-N-[5-(pyrrolidin-1-yl)pyridin-2-yl]-6,7-dihydro-2H-furo[2,3-f][1,3]benzodioxole-7-carboxamide] the same measures were 4750 nM and 147%.
The corresponding values for `C[C@]1(C(=O)Nc2cccc(-c3ccc(C(=O)O)cc3)n2)COc2cc3c(cc21)OC(F)(F)O3` [Example 81, 4-(6-{[(7R)-2,2-difluoro-7-methyl-6,7-dihydro-2H-furo[2,3-f][1,3]benzodioxole-7-carbonyl]amino}pyridin-2-yl)benzoic acid] are 1400 nM and 200%.
The corresponding values for `CCOC(=O)c1csc(-c2cccc(NC(=O)[C@@]3(C)COc4cc5c(cc43)OC(F)(F)O5)n2)c1` [Example 82, ethyl 5-(6-{[(7R)-2,2-difluoro-7-methyl-6,7-dihydro-2H-furo[2,3-f][1,3]benzodioxole-7-carbonyl]amino}pyridin-2-yl)thiophene-3-carboxylate] are 3160 nM and 116%.
Take `Cc1ccc(-c2cccc(C(=O)O)c2)nc1NC(=O)[C@@]1(C)COc2cc3c(cc21)OC(F)(F)O3` [Example 84, 3-(6-{[(7R)-2,2-difluoro-7-methyl-6,7-dihydro-2H-furo[2,3-f][1,3]benzodioxole-7-carbonyl]amino}-5-methylpyridin-2-yl)benzoic acid]: the midpoint of the response, the EC50, lay at 7510 nM and the “Maximum % activity (%)” value came out at 46%.
For `C[C@]1(C(=O)Nc2cccc(F)n2)COc2cc3c(cc21)OC(F)(F)O3` [Example 85, (7R)-2,2-difluoro-N-(6-fluoropyridin-2-yl)-7-methyl-6,7-dihydro-2H-furo[2,3-f][1,3]benzodioxole-7-carboxamide] the same measures were 6690 nM and 90%.
For `C[C@]1(C(=O)Nc2cccc(-c3cc(C(=O)O)cs3)n2)COc2cc3c(cc21)OC(F)(F)O3` [Example 86, 5-(6-{[(7R)-2,2-difluoro-7-methyl-6,7-dihydro-2H-furo[2,3-f][1,3]benzodioxole-7-carbonyl]amino}pyridin-2-yl)thiophene-3-carboxylic acid] the same measures were 2840 nM and 112%.
The corresponding values for `C[C@]1(C(=O)Nc2cccc(N3CCOC(CO)C3)n2)COc2cc3c(cc21)OC(F)(F)O3` (stereo partly drawn) [Example 87, (7R)-2,2-difluoro-N-{6-[2-(hydroxymethyl)morpholin-4-yl]pyridin-2-yl}-7-methyl-6,7-dihydro-2H-furo[2,3-f][1,3]benzodioxole-7-carboxamide] are 1860 nM and 100%.
As to `C[C@]1(C(=O)Nc2cccc(N3CC[C@H](O)C3)n2)COc2cc3c(cc21)OC(F)(F)O3` [Example 88, (7R)-2,2-difluoro-N-{6-[(3S)-3-hydroxypyrrolidin-1-yl]pyridin-2-yl}-7-methyl-6,7-dihydro-2H-furo[2,3-f][1,3]benzodioxole-7-carboxamide], the EC50 came out at 730 nM and the “Maximum % activity (%)” value was 113%.
For `COC(=O)c1ccc([C@H]2C[C@@H](NC(=O)[C@@]3(C)COc4cc5c(cc43)OC(F)(F)O5)c3ccc(OC)cc3O2)nc1` [Example 89E, methyl 6-[(2R,4R)-4-{[(7R)-2,2-difluoro-7-methyl-6,7-dihydro-2H-furo[2,3-f][1,3]benzodioxole-7-carbonyl]amino}-7-methoxy-3,4-dihydro-2H-1-benzopyran-2-yl]pyridine-3-carboxylate] the same measures were 18 nM and 116%.
In the case of `C[C@]1(C(=O)Nc2cccc(N3CC[C@@H](O)C3)n2)COc2cc3c(cc21)OC(F)(F)O3` [Example 91, (7R)-2,2-difluoro-N-{6-[(3R)-3-hydroxypyrrolidin-1-yl]pyridin-2-yl}-7-methyl-6,7-dihydro-2H-furo[2,3-f][1,3]benzodioxole-7-carboxamide], the EC50 stood at 210 nM and the “Maximum % activity (%)” value stood at 116%.

Source of the values: US9840513B2 (AbbVie S.à.r.l., priority 2015, dated 2017).
